Experimental data reported in patent US9242970B2 (ACTELION PHARMACEUTICALS LTD., priority 2010, dated 2016).
Where two headings read alike, the source gives them in different places.

Columns and labels:
human orexin-1 receptor = human orexin-1 receptor (Homo sapiens (Human), UniProt O43613); assay: In vitro assay: intracellular calcium measurements (FLIPR), antagonistic activity; assay type: cell-based; conditions: CHO cells, 3 nM orexin-A, marked values are geometric means of n = 2-6, read-out: IC50 OX1
human orexin-2 receptor = human orexin-2 receptor (Homo sapiens (Human), UniProt O43614); assay: as above; assay type: cell-based; conditions: CHO cells, 3 nM orexin-A, marked values are geometric means of n = 2-6, read-out: IC50 OX2
[1] = compound incubation time of 10 min

Sequence of human orexin-1 receptor (O43613 whole entry): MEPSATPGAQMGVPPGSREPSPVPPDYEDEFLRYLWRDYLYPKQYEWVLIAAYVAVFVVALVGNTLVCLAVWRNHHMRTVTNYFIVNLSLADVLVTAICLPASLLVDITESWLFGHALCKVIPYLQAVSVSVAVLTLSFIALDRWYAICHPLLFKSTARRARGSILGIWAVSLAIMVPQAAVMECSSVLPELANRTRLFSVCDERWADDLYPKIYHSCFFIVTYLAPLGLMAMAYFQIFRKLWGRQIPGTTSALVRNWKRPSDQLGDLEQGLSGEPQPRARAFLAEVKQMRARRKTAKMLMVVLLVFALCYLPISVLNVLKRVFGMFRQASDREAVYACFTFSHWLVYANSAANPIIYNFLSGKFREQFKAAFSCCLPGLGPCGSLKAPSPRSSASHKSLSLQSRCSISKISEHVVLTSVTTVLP
Sequence of human orexin-2 receptor (O43614 whole entry): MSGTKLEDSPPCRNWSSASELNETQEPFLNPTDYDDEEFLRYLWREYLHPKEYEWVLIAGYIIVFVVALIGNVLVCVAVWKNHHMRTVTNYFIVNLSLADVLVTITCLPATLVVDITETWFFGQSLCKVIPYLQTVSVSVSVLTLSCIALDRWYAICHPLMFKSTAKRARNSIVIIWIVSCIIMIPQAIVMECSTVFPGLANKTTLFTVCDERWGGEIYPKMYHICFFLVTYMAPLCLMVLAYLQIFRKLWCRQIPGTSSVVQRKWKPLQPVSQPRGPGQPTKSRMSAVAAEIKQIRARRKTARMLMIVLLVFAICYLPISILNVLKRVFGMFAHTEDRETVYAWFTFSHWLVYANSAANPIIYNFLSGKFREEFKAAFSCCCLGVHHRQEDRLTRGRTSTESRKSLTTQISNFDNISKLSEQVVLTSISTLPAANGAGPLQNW

Compound | IC50 (human orexin-1 receptor; compound incubation 120 min) | IC50 (human orexin-2 receptor; compound incubation 120 min) | IC50 (human orexin-1 receptor; [1]) | IC50 (human orexin-2 receptor; [1])
COc1ccc2c(C)noc2c1C1CCCC(=O)N1Cc1cccc(-c2ccccc2)c1 (stereo not shown) [Example 235, 1-([1,1′-biphenyl]-3-ylmethyl)-6-(6-methoxy-3-methylbenzo[d]isoxazol-7-yl)piperidin-2-one] | 288 nM | 194 nM |  | 
COc1ccccc1C1CCCC(=O)N1Cc1ccc2ccccc2c1 (stereo not shown) [Example 236, 6-(2-methoxyphenyl)-1-(naphthalen-2-ylmethyl)piperidin-2-one] |  |  | 1770 nM | 369 nM
COc1ccccc1C1CCCC(=O)N1Cc1ccc(OC(F)(F)F)cc1 (stereo not shown) [Example 237, 6-(2-methoxyphenyl)-1-(4-(trifluoromethoxy)benzyl)piperidin-2-one] |  |  | 3490 nM | 635 nM
COc1cccc(OC)c1C1CCCC(=O)N1Cc1ccc2ccccc2c1 (stereo not shown) [Example 238, 6-(2,6-dimethoxyphenyl)-1-(naphthalen-2-ylmethyl)piperidin-2-one] |  |  | 77 nM | 47 nM
O=C1CCCC(c2ccccc2C(F)(F)F)N1Cc1ccc2ccccc2c1 (stereo not shown) [Example 239, 1-(naphthalen-2-ylmethyl)-6-(2-(trifluoromethyl)phenyl)piperidin-2-one] |  |  | 6420 nM | 3580 nM
COc1cccc(OC)c1C1CCCC(=O)N1Cc1ccc2c(c1)CCCN2 (stereo not shown) [Example 240, 6-(2,6-dimethoxyphenyl)-1-((1,2,3,4-tetrahydroquinolin-6-yl)methyl)piperidin-2-one] |  |  | 2040 nM | 596 nM
COc1cccc(OC)c1C1CCCC(=O)N1Cc1ccc2c(ccn2C)c1 (stereo not shown) [Example 241, 6-(2,6-dimethoxyphenyl)-1-((1-methyl-1H-indol-5-yl)methyl)piperidin-2-one] |  |  | 426 nM | 275 nM
COc1cccc(OC)c1C1CCCC(=O)N1Cc1cn2ccccc2n1 (stereo not shown) [Example 242, 6-(2,6-dimethoxyphenyl)-1-(imidazo[1,2-a]pyridin-2-ylmethyl)piperidin-2-one] |  |  | 17700 nM | 1390 nM
COc1cccc(OC)c1C1CCCC(=O)N1Cc1ccc2c(c1)nnn2C (stereo not shown) [Example 243, 6-(2,6-dimethoxyphenyl)-1-((1-methyl-1H-benzo[d][1,2,3]triazol-5-yl)methyl)piperidin-2-one] |  |  | 10100 nM | 311 nM
COc1cccc(OC)c1C1CCCC(=O)N1Cc1ccc(-c2ccccc2)cc1 (stereo not shown) [Example 244, 1-([1,1′-biphenyl]-4-ylmethyl)-6-(2,6-dimethoxyphenyl)piperidin-2-one] |  |  | 1090 nM | 72 nM
COc1cccc(OC)c1C1CCCC(=O)N1Cc1ccc(N2CCCC2)cc1 (stereo not shown) [Example 245, 6-(2,6-dimethoxyphenyl)-1-(4-(pyrrolidin-1-yl)benzyl)piperidin-2-one] |  |  | 1070 nM | 132 nM
COc1cccc(OC)c1C1CCCC(=O)N1Cc1ccc(OCC(F)(F)F)cc1 (stereo not shown) [Example 246, 6-(2,6-dimethoxyphenyl)-1-(4-(2,2,2-trifluoroethoxy)benzyl)piperidin-2-one] |  |  | 665 nM | 11 nM
COc1cccc(OC)c1C1CCCC(=O)N1Cc1cc2ccccc2n1C (stereo not shown) [Example 247, 6-(2,6-dimethoxyphenyl)-1-((1-methyl-1H-indol-2-yl)methyl)piperidin-2-one] |  |  | 132 nM | 41 nM
COc1cccc(OC)c1C1CCCC(=O)N1Cc1ccc(S(C)(=O)=O)cc1 (stereo not shown) [Example 248, 6-(2,6-dimethoxyphenyl)-1-(4-(methylsulfonyl)benzyl)piperidin-2-one] |  |  | 7250 nM | 1710 nM
COc1cccc(OC)c1C1CCCC(=O)N1Cc1ccc2oc(C)nc2c1 (stereo not shown) [Example 249, 6-(2,6-dimethoxyphenyl)-1-((2-methylbenzo[d]oxazol-5-yl)methyl)piperidin-2-one] | 334 nM | 223 nM |  | 
COc1cccc(OC)c1C1CCCC(=O)N1Cc1ccc2sccc2c1 (stereo not shown) [Example 250, 1-(benzo[b]thiophen-5-ylmethyl)-6-(2,6-dimethoxyphenyl)piperidin-2-one] |  |  | 204 nM | 140 nM
CCOc1ccccc1C1CCCC(=O)N1Cc1ccc(OC(F)(F)F)cc1 (stereo not shown) [Example 251, 6-(2-ethoxyphenyl)-1-(4-(trifluoromethoxy)benzyl)piperidin-2-one] |  |  | 4070 nM | 426 nM
O=C1CCCC(c2ccccc2OC(F)(F)F)N1Cc1ccc(OC(F)(F)F)cc1 (stereo not shown) [Example 252, 1-(4-(trifluoromethoxy)benzyl)-6-(2-(trifluoromethoxy)phenyl)piperidin-2-one] |  |  | 9370 nM | 2660 nM
COc1cccc(OC)c1C1CC(F)(F)C(=O)N1Cc1ccc(OC(F)(F)F)cc1 (stereo not shown) [Example 256, 5-(2,6-dimethoxyphenyl)-3,3-difluoro-1-(4-(trifluoromethoxy)benzyl)pyrrolidin-2-one] |  |  | 193 nM | 133 nM

Compound | IC50 (human orexin-1 receptor; compound incubation 120 min) | IC50 (human orexin-2 receptor; compound incubation 120 min) | IC50 (human orexin-1 receptor; [1]) | IC50 (human orexin-2 receptor; [1])
COc1cccc(OC)c1C1COCC(=O)N1Cc1ccc(OC(F)(F)F)cc1 (stereo not shown) [Example 266, 5-(2,6-dimethoxyphenyl)-4-(4-(trifluoromethoxy)benzyl)morpholin-3-one] |  |  | 412 nM | 86 nM
COc1cccc(OC)c1C1CNCC(=O)N1Cc1ccc(OC(F)(F)F)cc1 (stereo not shown) [Example 267, 6-(2,6-dimethoxyphenyl)-1-(4-(trifluoromethoxy)benzyl)piperazin-2-one] |  |  | 2680 nM | 589 nM
COc1cccc(OC)c1C1CN(C)CC(=O)N1Cc1ccc(OC(F)(F)F)cc1 (stereo not shown) [Example 268, 6-(2,6-dimethoxyphenyl)-4-methyl-1-(4-(trifluoromethoxy)benzyl)piperazin-2-one] |  |  | 1270 nM | 410 nM
COc1ncnc(OC)c1C1CCCC(=O)N1Cc1cccc(-c2csc(C)n2)c1 (stereo not shown) [Example 269, 6-(4,6-dimethoxypyrimidin-5-yl)-1-(3-(2-methylthiazol-4-yl)benzyl)piperidin-2-one] | 1030 nM | 619 nM |  | 
COc1ncnc(OC)c1C1CCCC(=O)N1Cc1cccc(-c2ccccc2)c1 (stereo not shown) [Example 270, 1-([1,1′-biphenyl]-3-ylmethyl)-6-(4,6-dimethoxypyrimidin-5-yl)piperidin-2-one] | 568 nM | 412 nM |  | 
COc1ncnc(OC)c1C1CCCC(=O)N1Cc1csc(-c2ccccc2)n1 (stereo not shown) [Example 271, 6-(4,6-dimethoxypyrimidin-5-yl)-1-((2-phenylthiazol-4-yl)methyl)piperidin-2-one] | 5690 nM | 256 nM |  | 
Cc1nc(-c2cccc(CN3C(=O)CCCC3c3cccc4c3OCCO4)c2)cs1 (stereo not shown) [Example 272, 6-(2,3-dihydrobenzo[b][1,4]dioxin-5-yl)-1-(3-(2-methylthiazol-4-yl)benzyl)piperidin-2-one] | 510 nM | 229 nM |  | 
O=C1CCCC(c2cccc3c2OCCO3)N1Cc1cccc(-c2ccccc2)c1 (stereo not shown) [Example 273, 1-([1,1′-biphenyl]-3-ylmethyl)-6-(2,3-dihydrobenzo[b][1,4]dioxin-5-yl)piperidin-2-one] | 795 nM | 296 nM |  | 
COc1cncc(OC)c1C1CCCCC(=O)N1Cc1cccc(-c2csc(C)n2)c1 (stereo not shown) [Example 274, 7-(3,5-dimethoxypyridin-4-yl)-1-(3-(2-methylthiazol-4-yl)benzyl)azepan-2-one] | 23 nM | 64 nM |  | 
COc1cncc(OC)c1C1CCCCC(=O)N1Cc1cccc(-c2ccccc2)c1 (stereo not shown) [Example 275, 1-([1,1′-biphenyl]-3-ylmethyl)-7-(3,5-dimethoxypyridin-4-yl)azepan-2-one] | 50 nM | 80 nM |  | 
COc1cncc(OC)c1C1CCCCC(=O)N1Cc1ccc2c(c1)c1ccccc1n2C (stereo not shown) [Example 276, 7-(3,5-dimethoxypyridin-4-yl)-1-((9-methyl-9H-carbazol-3-yl)methyl)azepan-2-one] | 347 nM | 222 nM |  | 
COc1cncc(OC)c1C1CCCCC(=O)N1Cc1csc(-c2ccccc2)n1 (stereo not shown) [Example 277, 7-(3,5-dimethoxypyridin-4-yl)-1-((2-phenylthiazol-4-yl)methyl)azepan-2-one] | 214 nM | 182 nM |  | 
COc1cccc(OC)c1C1CCCC(=O)N1Cc1csc(Oc2ccccc2)n1 (stereo not shown) [Example 278, 6-(2,6-dimethoxyphenyl)-1-((2-phenoxythiazol-4-yl)methyl)piperidin-2-one] | 250 nM | 172 nM |  | 
COc1ccc2nc(C)oc2c1C1CCCC(=O)N1Cc1ccc2ccccc2n1 (stereo not shown) [Example 279, 6-(6-methoxy-2-methylbenzo[d]oxazol-7-yl)-1-(quinolin-2-ylmethyl)piperidin-2-one] | 623 nM | 1030 nM |  | 
COc1ccc2ncoc2c1C1CCCC(=O)N1Cc1ccc2ccccc2n1 (stereo not shown) [Example 280, 6-(6-methoxybenzo[d]oxazol-7-yl)-1-(quinolin-2-ylmethyl)piperidin-2-one] | 1820 nM | 1800 nM |  | 
COc1ccc(Cl)c(OC)c1C1CCCC(=O)N1Cc1cccc(-c2csc(C)n2)c1 (stereo not shown) [Example 281, 6-(3-chloro-2,6-dimethoxyphenyl)-1-(3-(2-methylthiazol-4-yl)benzyl)piperidin-2-one] | 42 nM | 115 nM |  | 
COc1cccc(OC)c1C1CCC(=O)N1Cc1ccc(Oc2nccs2)cc1 (stereo not shown) [Example 282, 5-(2,6-dimethoxyphenyl)-1-(4-(thiazol-2-yloxy)benzyl)pyrrolidin-2-one] | 139 nM | 213 nM |  | 
Cc1nc(-c2cccc(CN3C(=O)CCCC3c3ccccc3-c3ccccc3)c2)cs1 (stereo not shown) [Example 283, 6-([1,1′-biphenyl]-2-yl)-1-(3-(2-methylthiazol-4-yl)benzyl)piperidin-2-one] | 275 nM | 548 nM |  | 
O=C1CCCC(c2ccccc2-c2ccccc2)N1Cc1cccc(-c2ccccc2)c1 (stereo not shown) [Example 284, 6-([1,1′-biphenyl]-2-yl)-1-([1,1′-biphenyl]-3-ylmethyl)piperidin-2-one] | 1450 nM | 722 nM |  | 
